In patent US20220000117A1, “METHOD FOR CONTROLLING DISEASES IN SMALL GRAIN CEREALS, SEED OF SMALL GRAIN CEREALS, AND METHOD FOR SUPPRESSING LODGING DAMAGE IN SMALL GRAIN CEREALS” (KUMIAI CHEMICAL INDUSTRY CO., LTD., priority 2019, published 2022):

Legend:
[1] = test system: septoria leaf blotch; experiment: Test Example 7: control test of septoria leaf blotch of wheat, field, wheat variety TRAPEZ; format: in vivo, Septoria tritici; conditions: for Degree of Disease Occurrence: flag leaves, 219 days after seeding
Description: (§1) Degree of Disease Occurrence=Σ(Index×Number of Leaves of Index)/(4×Number of Investigated Leaves)×100 (1)
Seed of wheat (variety: TRAPEZ) was used. On seed having a mass of 1 kg, 20 ml of suspension water containing 0.5 g or 5 g of dichlobentiazox or isotianil was sprayed. In Examples 16, 17, and 18, the seed treated with the chemical was stripe-sown with a ratio of 100 kg/ha. In contrast, in Comparative Example 17, seed which had not treated with dichlobentiazox or isotianil was sown in a field in the same manner, and a spray solution corresponding to that obtained by suspending 750 g of chlomthalonil (commercial FUNGISTOP was used, “FUNGISTOP” is a registered trademark) in 200 liters of water per 1 ha was sprayed on foliage of wheat 154 days and 184 days after seeding. The severity of disease occurrence of septoria leaf blotch in flag leaves of 25 stems was investigated 219 days after seeding according to the criteria in Table 1, and the degree of disease occurrence was calculated by the above calculation formula (1).

[2] = test system: powdery mildew; experiment: Test Example 5: control test of wheat powdery mildew, field, wheat variety Haruyutaka; format: in vivo, Blumeria graminis; conditions: for Degree of Disease Occurrence / Disease Leaf Rate (%): leaves just below flag leaves, 85 days after seeding
Description: as §1
Seed of wheat (variety: Haruyutaka) sterilized in advance with commercial Benlate T wettable powder 20 (“Benlate” is a registered trademark) was used. In Examples 12, 13, and 14, seed having a mass of 1 kg was mixed into 50 ml of suspension water containing 2.5 g or 1.25 g of dichlobentiazox or 50 ml of suspension water containing 2.5 g of isotianil, air-dried, and then, stripe-sown in a field with a furrow width of 30 cm and a ratio of 100 kg/ha (300 seeds/m^2). Moreover, in Comparative Example 14, seed having a mass of 1 kg was mixed into 50 ml of suspension water containing 2.5 g of tiadinil (commercial V-GET flowable was used, “V-GET” is a registered trademark), air-dried, and then, stripe-sown in a field with a furrow width of 30 cm and a ratio of 100 kg/ha (300 seeds/m^2). The presence or absence of disease occurrence and a lesion area ratio of powdery mildew in leaves just below hag leaves (next leaves) of 30 stems were investigated 85 days after seeding by according to the criteria in Table 1, and a disease leaf rate and the degree of disease occurrence were calculated by the above calculation formula(1).

[3] = test system: powdery mildew; experiment: Test Example 1: control test of wheat powdery mildew, field, wheat variety Haruyutaka; format: in vivo, Blumeria graminis; conditions: for Degree of Disease Occurrence / Disease Leaf Rate (%): flag leaves, 79 days after seeding
Description: Seed of wheat (variety: Haruyutaka) sterilized in advance with commercial Benlate T wettable powder 20 (“Benlate” is a registered trademark) was used. In Example 1, seed having a mass of 1 kg was mixed into 100 ml of suspension water containing 5 g of dichlobentiazox, air-dried, and then, stripe-sown in a field with a furrow width of 30 cm and a ratio of 163 kg/ha (417 seeds/m^2). In contrast, in Comparative Example 1, seed which had not treated with dichlobentiazox was sown in a field in the same manner, and a spray solution corresponding to that obtained by suspending 500 g of dichlobentiazox in 200 liters of water per 1 ha was sprayed on foliage of wheat three times, during an ear emergence period (63 days after seeding), a flowering period (70 days after seeding), and a flowering end period (77 days after seeding). Similarly, in place of 500 g of dichlobentiazox in Comparative Example 1, 250 g of azoxystrobin (commercial Amistar 20 flowable was used. “Amistar” is a registered trademark) was used in Comparative Example 2, and 125 g of propiconazole (commercial Tilt emulsifiable concentrate 25 was used, “Tilt” is a registered trademark) was used in Comparative Example 3. The presence or absence of disease occurrence and a lesion area ratio of powdery mildew in flag leaves of 30 stems were investigated 79 days after seeding according to the criteria in Table 1, and a disease leaf rate and the degree of disease occurrence were calculated by the following calculation formula (1).
as §1

[4] = test system: wheat (variety: Norin No. 61); experiment: Test Example 2: emergence rate of treated wheat seed; format: in vivo; conditions: 10 days after seeding
Description: Seed having a mass of 1 kg of wheat (variety: Norin No. 61) was mixed into 100 ml of suspension water containing 5 g or 0.5 g of dichlobentiazox or isotianil (commercial Routine flowable was used, “Routine” is a registered trademark) and air-dried, and then, 15 seeds were sown in a plastic pot of 9 cm×9 cm containing horticultural soil and managed in a greenhouse. The number of emerged seeds was investigated 10 days after seeding, and an emergence rate was calculated (Examples 2 to 5). On day 49 after seeding, conidiospores of powdery mildew were sifted over leaves of wheat seedlings and inoculated onto the leaves, a lesion area ratio of powdery mildew in a first leaf was investigated 59 days after seeding according to the criteria in Table 1, and the degree of disease occurrence was calculated by the above calculation formula (1).

[5] = test system: wheat (variety: Apache); experiment: Test Example 8: emergence rate of wheat seed; format: in vivo
Description: Seed having a mass of 1 kg of wheat (variety: Apache) was mixed into 100 ml of suspension water containing from 0.5 g or 5 g of the 3,4-dichloroisothiazole derivative of the compound (6) or (3) (synthesis was performed in accordance with a known method, formulated 10% wettable powder was used) and air-dried, and then, 12 seeds were sown in a plastic cup having a diameter of 6 cm containing river sand and managed in a greenhouse. The number of emerged seeds was investigated 12 days after seeding, and an emergence rate was calculated. In Comparative Examples 19 to 22, 20 ml of suspension water of an active ingredient, which had been adjusted to have a concentration shown in Table 9, was sprayed in a frame of 45 cm×45 cm in which a pot of wheat seedlings was placed (corresponding to 1000 L/ha) 12 days after seeding. A spore suspension in which conidiospores of septoria leaf blotch are suspended were sprayed and inoculated on leaves of wheat seedlings 12 days after seeding (after the sprayed liquid was dried in the case of Comparative Examples), a lesion area ratio of septoria leaf blotch in a second leaf was investigated 31 days after seeding according to the criteria in Table 1, and the degree of disease occurrence was calculated by the above calculation formula (1).

[6] = Seed Treatment 0.5 g/Seed 1 kg (50 g/ha)
[7] = Seed Treatment 5 g/Seed 1 kg (500 g/ha)
[8] = Seed Treatment 1.25 g/Seed 1 kg (printed: 250 g/ha)
[9] = Seed Treatment 2.5 g/Seed 1 kg (250 g/ha)
[10] = Foliage Treatment, spray 500 g/ha three times
[11] = Seed Treatment 5 g/Seed 1 kg (815 g/ha)
[12] = Foliage Treatment group, spray 50 ppm (50 g/ha) 12 days after seeding, emergence counted 12 days after seeding
[13] = Foliage Treatment group, spray 500 ppm (500 g/ha) 12 days after seeding, emergence counted 12 days after seeding
[14] = Seed Treatment 0.5 g/Seed 1 kg, 12 days after seeding
[15] = Seed Treatment 5 g/Seed 1 kg (500 g/ha), 12 days after seeding

O=S1(=O)N=C(OCc2snc(Cl)c2Cl)c2ccccc21 [Compound (1), Dichlobentiazox]
Degree of Disease Occurrence [1, 6]: 2.8
Degree of Disease Occurrence [1, 7]: 1.9
disease occurrence of septoria leaf blotch, seed treatment compared with foliage spraying of chlorothalonil ([1]; seed treatment): more suppressed
Degree of Disease Occurrence [2, 8]: 0.8
Disease Leaf Rate (%) [2, 8]: 4.4%
Degree of Disease Occurrence [2, 9]: 0.4
Disease Leaf Rate (%) [2, 9]: 2.2%
disease occurrence of powdery mildew, seed treatment compared with seed treatment with tiadinil ([2]; seed treatment): suppresses the disease occurrence of powdery mildew lower
disease occurrence of powdery mildew, seed treatment compared with foliage spraying of dichlobentiazox (Comparative Example 1) ([3]; Example 1, seed treatment): more suppressed
Degree of Disease Occurrence [3, 10]: 12.6
Disease Leaf Rate (%) [3, 10]: 58.9%
Degree of Disease Occurrence [3, 11]: 0.6
Disease Leaf Rate (%) [3, 11]: 4.4%
disease occurrence of powdery mildew, seed treatment compared with foliage spraying of azoxystrobin and propiconazole (Comparative Examples 2 and 3) ([3]; seed treatment): more suppressed
Emergence Rate (%) [4, 6]: 100%
Emergence Rate (%) [4, 7]: 96%

OCc1snc(Cl)c1Cl [Compound (3)]
Emergence Rate (%) [5, 12]: 97.2%
Emergence Rate (%) [5, 13]: 97.2%
Emergence Rate (%) [5, 14]: 97.2%
Emergence Rate (%) [5, 15]: 86.1%

O=C(O)c1snc(Cl)c1Cl [Compound (6)]
Emergence Rate (%) [5, 12]: 97.2%
Emergence Rate (%) [5, 13]: 94.4%
Emergence Rate (%) [5, 14]: 88.9%
Emergence Rate (%) [5, 15]: 88.9%
